Four molecules from US20020115642A1, “Beta-lactam antibiotics” (priority 2000, published 2002) can be followed below.

Test [1] relates to Staphylococcus aureus. The test can be described thus: Susceptibility testing (MIC, modified NCCLS method). It counts as cell-based. The procedure: (§1) The NCCLS (National Committee for Clinical Laboratory Standards) method to determine MIC's of antimicrobial compounds was modified for high-throughput screening. All stocks of tested compounds were prepared in either water or in dimethylsulfoxide (DMSO), depending on the solubility. […] Briefly 20 2-fold serial dilutions of testing compounds from the highest concentration were made in a 384-well microtiter plate. Each well was inoculated with testing bacteria in broth to a final concentration of approximately 1-1.5×10^6 cells/ml. Bacterial growth was determined by the increase of optical density at 600 nm using a microplate reader (Tecan SpectraFluor Plus).

Test [2] concerns K. pneumoniae. The description is as above. It counts as cell-based, Klebsiella pneumoniae. The procedure: as §1
Test [3] has as its system P. aeruginosa. The description is as above. The test is classed as cell-based, Pseudomonas aeruginosa. The procedure:
as §1

Test [4] relates to E coli R(Tem1). The test is described as follows: Inhibition of bacterial growth (IC50, OD600). The settings on record: for IC50 ratio N/R: N versus R (Tem1); for IC50: Cell R (Tem1). The test is classed as cell-based. How it is done: (§2) Compounds of the invention were tested for their ability to inhibit the growth of β-lactam sensitive and resistant bacteria by contacting samples of such cells with various dilutions of the compositions, incubating the cells at 37° C. in the presence of these compositions and then measuring the number of viable cells present in each sample.
(§3) Two compounds of the invention were tested, Compound (9) and Compound (1l). Incubation of bacterial cells was performed for two time periods, 10 hours and 20 hours. Four E. coli strains were used for the test. These strains were all derived from the strain NovaBlue (NovaGen Inc., Madison, Wis.). E. coli N is a normal, β-lactam sensitive strain. E coli R(Tem1) is a β-lactam resistant strain with a β-lactamase gene on a plasmid. E. coli C(Tem4O-15) is a β-lactam resistant strain with a β-lactam inhibitor resistant β-lactamase gene, and E. coli C(Tem3 1-27) is β-lactam resistant strain with an alternative β-lactam inhibitor resistant β-lactamase gene.
(§4) The various E. coli strains were each treated with dilutions of the compounds of the invention. […] The number of viable cells at each time point was determined by measuring the OD600 of each cell sample.
(§5) After measuring the number of viable cells present, the IC50 for each sample was determined. […] In addition, both compounds were effective at inhibiting the growth of both antibiotic sensitive and resistant bacterial cells.

Test [5] has as its system E. coli C(Tem3 1-27). The test is described as follows: Inhibition of bacterial growth (IC50, OD600). It counts as cell-based. The settings on record: for IC50: Cell C (Tem31-27). How it is done:
as §2, §3, §4, §5

Test [6] deals with E. coli C(Tem4O-15). The test is described as follows: Inhibition of bacterial growth (IC50, OD600). It counts as cell-based. The conditions noted are these: for IC50: Cell C (Tem40-15). How it is done:
as §2, §3, §4, §5

Test [7] concerns E. coli N. The test can be described thus: Inhibition of bacterial growth (IC50, OD600). The test is classed as cell-based. The procedure:
as §2, §3, §4, §5

The subject of test [8] is E. cloacae. The test can be described thus: Susceptibility testing (MIC, modified NCCLS method). The settings on record: E. cloacae (1). The test is classed as cell-based, Enterobacter cloacae. The procedure: as §1
The subject of test [9] is E. aerogenes. Described as above. The test is classed as cell-based, Enterobacter aerogenes. The conditions noted are these: E. aerogenes (5). The procedure: as §1
In test [10] the test system is S. aureus clinical isolates. The test can be described thus: MIC by agar dilution, recent clinical isolates (UCSD Medical Center). It counts as cell-based, Staphylococcus aureus. The settings on record: MSSA (14). How it is done: Growth of all 14 isolates of MSSA was inhibited by Compound (9) at the lowest tested concentration (0.08 μg/ml) (See Table 6, below).
A general note: In agar dilution, organisms are placed on agar that contains the substance at set levels.

Test [11] concerns S. aureus clinical isolates. Described as above. It counts as cell-based, Staphylococcus aureus. The settings on record: MRSA (17).
For test [12], the system named is E. faecalis. The test is described as follows: Susceptibility testing (MIC, modified NCCLS method). It counts as cell-based, Enterococcus faecalis. The conditions noted are these: Enterococcus faecalis, read-out: GM* MIC (geometric mean). How it is done: as §1
The subject of test [13] is S. epidermidis. Described as above. It counts as cell-based, Staphylococcus epidermidis. The conditions noted are these: for MIC: Staphylococcus epidermidis. The procedure:
as §1

The subject of test [14] is E. faecium. Described as above. It counts as cell-based, Enterococcus faecium. The settings on record: Enterococcus faecium, read-out: GM* MIC (geometric mean). How it is done:
as §1

Test [15] concerns Vancomycin-resistant E. faecalis or E. faecium. The test is described as above. The test is classed as cell-based, Enterococcus faecalis, Enterococcus faecium. How it is done:
as §1

The mark [16] stands for this setting: read-out: IC50 10 hours, 10 hours.
Setting [17] is: read-out: IC50 20 hours, 20 hours.
[18] abbreviates: read-out: IC50 10 hours, Cell N, 10 hours, 37° C.

The IC50 is the concentration that inhibits the measured activity by half. As a reminder, the MIC50 is an inhibitory concentration at the 50% level, which refers to growth in some studies and to a panel of isolates in others. A word on the MIC90: it is the lowest concentration that inhibits either 90% of growth or 90% of the strains tested, depending on the study. Read a low MIC90 as higher susceptibility.

Converted amounts (≈) assume the structure as drawn. Where two headings read alike, the source gives them in different places.

For the molecule “3-(2-(2,4-Dichlorophenoxy)-5-chlorophenoxy)methyl-7-(2-thienylacetamido)-1-oxo-3-cephem-4-carboxylate [Compound 11]”, the MIC was 0.0078 µg/mL in [1] (S. aureus ATCC 700260); 1 µg/mL in test [1] (S. aureus ATCC 700699); 4 µg/mL in test [2] (K. pneumoniae ATCC 700721); more than 64 µg/mL in test [3] (P. aeruginosa ATCC 21726); more than 64 µg/mL in test [3] (P. aeruginosa ATCC 29872). The “IC50 ratio N/R” value in test [4] (10 hours) was “N/R = 1388x”; in [4] (20 hours), “N/R = 120x”. Besides, the half-maximal inhibitory concentration (IC50) in test [4] (setting [16]) was 0.00539 µM; in test [4] (setting [17]), 0.0353 µM; in [5] (setting [16]), 1.11 µM; in test [5] (setting [17]), 1.48 µM; in test [6] (setting [16]) it was 0.369 µM; in test [6] (setting [17]), 0.653 µM. Besides, the 50% inhibitory concentration (IC50) was 7.48 µM in test [7] (setting [18]) and 4.24 µM in test [7] (read-out: IC50 20 hours, Cell N, 20 hours). Also, the “IC50 ratio (C/R or N/C)” value in test [5] (10 hours, line of C (Tem31-27)) is on record as “N/C = 6.7x”; in test [6] (10 hours, line of C (Tem40-15)), “N/C = 20x”. For the same molecule, the “IC50 ratio (given C/R or N/R)” value is on record as “N/R = 2.9x” in test [5] (20 hours, line of C (Tem31-27)) and “N/R = 6.5x” in test [6] (20 hours, line of C (Tem40-15)).

Turning to `CC1(C)S[C@@H]2[C@H](NC(=O)[C@H](N)c3ccccc3)C(=O)N2[C@H]1C(=O)O` [Ampicillin, ampicillin, reference compound], the results for the MIC range in [8] and in test [9] were 31 µg/mL (≈ 88.7 µM) and 61 to 7813 µg/mL, respectively. For the same molecule, the MIC was 31 µg/mL (≈ 88.7 µM) in test [8] (Enterobacter cloacae, read-out: GM* MIC (geometric mean)); 488 µg/mL (≈ 1400 µM) in [9] (Klebsiella aerogenes, read-out: GM* MIC (geometric mean)); 27200 µg/mL (≈ 77800 µM) in [2] (Klebsiella pneumoniae, K. pneumoniae (5), read-out: GM* MIC (geometric mean)). Further, the 50% inhibitory concentration (IC50) in [7] (Escherichia coli, 10 h, read-out: IC50 10 hours, Cell N, 10 hours, 37° C.) turned out to be 9.71 µM; in [7] (Escherichia coli, 20 h, read-out: IC50 20 hours, Cell N, 20 hours) it was 7.47 µM; in test [7] (setting [18]), 7.88 µM.

Turning to `Cc1nnc(SCC2=C(C(=O)O)N3C(=O)[C@@H](NC(=O)Cn4cnnn4)[C@H]3SC2)s1` [Cefazolin, reference compound], the MIC range was 0.08 to 0.6 µg/mL in test [10] and 5 µg/mL (≈ 11 µM) in test [11]. The MIC50 is 0.16 µg/mL (≈ 0.352 µM) in [10] (Staphylococcus aureus) and more than 5 µg/mL in [11] (Staphylococcus aureus). Also, the MIC90 was 0.3 µg/mL (≈ 0.66 µM) in test [10] (Staphylococcus aureus) and more than 5 µg/mL in [11] (Staphylococcus aureus).

As for `CN[C@H](CC(C)C)C(=O)N[C@H]1C(=O)N[C@@H](CC(N)=O)C(=O)N[C@H]2C(=O)N[C@H]3C(=O)N[C@H](C(=O)N[C@H](C(=O)O)c4cc(O)cc(O)c4-c4cc3ccc4O)[C@H](O)c3ccc(c(Cl)c3)Oc3cc2cc(c3O[C@@H]2O[C@H](CO)[C@@H](O)[C@H](O)[C@H]2O[C@H]2C[C@](C)(N)[C@H](O)[C@H](C)O2)Oc2ccc(cc2Cl)[C@H]1O` [Vancomycin, vancomycin, reference compound], the MIC in test [1] (Staphylococcus aureus, ATCC11632, ATCC 11632, methicillin-sensitive, β-lactamase Neg./Pos.) worked out at 0.25 µg/mL (≈ 0.173 µM); in test [1] (Staphylococcus aureus, ATCC13301, ATCC 13301, methicillin-sensitive, β-lactamase Positive), 0.25 µg/mL (≈ 0.173 µM); in [1] (Staphylococcus aureus, ATCC14154, ATCC 14154, methicillin-sensitive, β-lactamase Positive) it was 0.5 µg/mL (≈ 0.345 µM); in test [1] (Staphylococcus aureus, ATCC33591, ATCC 33591, methicillin-resistant, β-lactamase Positive), 0.25 µg/mL (≈ 0.173 µM); in test [1] (Staphylococcus aureus, ATCC33592, ATCC 33592, methicillin-sensitive, β-lactamase Positive), 0.5 µg/mL (≈ 0.345 µM); in test [1] (Staphylococcus aureus, ATCC33593, ATCC 33593, methicillin-resistant, β-lactamase Positive) it was 0.5 µg/mL (≈ 0.345 µM). For the same molecule, the MIC was determined as 0.5 µg/mL (≈ 0.345 µM) in test [1] (Staphylococcus aureus, ATCC33594, ATCC 33594, methicillin-sensitive, β-lactamase Positive); 0.5 µg/mL (≈ 0.345 µM) in [1] (Staphylococcus aureus, ATCC43300, ATCC 43300, methicillin-sensitive, β-lactamase Neg./Pos.); 1 µg/mL (≈ 0.69 µM) in test [1] (Staphylococcus aureus, ATCC700260, ATCC 700260, methicillin-sensitive, β-lactamase Positive); 2 µg/mL (≈ 1.38 µM) in [1] (Staphylococcus aureus, ATCC700698, ATCC 700698, methicillin-resistant, β-lactamase Negative); 4 µg/mL (≈ 2.76 µM) in test [1] (Staphylococcus aureus, ATCC700699, ATCC 700699, methicillin-resistant, β-lactamase Negative); 8 µg/mL (≈ 5.52 µM) in test [1] (Staphylococcus aureus, ATCC700787, ATCC 700787, methicillin-resistant, β-lactamase Positive). Moreover, the MIC was 2 µg/mL (≈ 1.38 µM) in test [1] (Staphylococcus aureus, ATCC700788, ATCC 700788, methicillin-resistant, β-lactamase Positive); 2 µg/mL (≈ 1.38 µM) in test [1] (Staphylococcus aureus, ATCC700789, ATCC 700789, methicillin-resistant, β-lactamase Positive); 1.64 µg/mL (≈ 1.13 µM) in test [1] (Staphylococcus aureus, MRSA, read-out: Geometric mean of MIC, MRSA tested (7)); 0.36 µg/mL (≈ 0.248 µM) in [1] (Staphylococcus aureus, MSSA, read-out: Geometric mean of MIC, MSSA tested (7)); 0.86 µg/mL (≈ 0.593 µM) in test [1] (Staphylococcus aureus, read-out: Geometric mean of MIC, S. aureus (14)); 2.83 µg/mL (≈ 1.95 µM) in test [1] (Staphylococcus aureus, read-out: Geometric mean of MIC, S. aureus β-lactamase negative (2)). The MIC was 0.94 µg/mL (≈ 0.649 µM) in test [1] (Staphylococcus aureus, read-out: Geometric mean of MIC, S. aureus β-lactamase positive (12)); more than 6.41 µg/mL in test [12]; 1.74 µg/mL (≈ 1.2 µM) in test [13] (read-out: GM* MIC (geometric mean)); 2 µg/mL (≈ 1.38 µM) in test [13] (read-out: MICs of heterogeneous vancomycin resistant strains); more than 3.49 µg/mL in test [14]; more than 47.4 µg/mL in test [15] (Enterococcus, VRE, read-out: GM* MIC (geometric mean)). Moreover, the MIC range in test [13] (S. epidermidis (5)) was 1 to 2 µg/mL. The “GM* MIC (geometric mean)” value in [15] (VRE (5)) was more than 47.4 µg/mL.
